Assay results: US7163923B2, “Peptide deformylase activated prodrugs” (Celmed Oncology (USA), Inc., priority 2001, dated 2007)
Values after ≈ are worked out from the molar mass of the structure shown. Where two headings read alike, the source gives them in different places.

Key:
Format in all cases: cell-based
[1] = Toxicity to mammalian cells; conditions: after 16 hours of exposure
Description: Mammalian cells were treated with NB2046 as described above.

E. cloacae = test: MIC susceptibility testing (modified NCCLS, 384-well); conditions: Enterobacter cloacae
Description: (§1) The NCCLS (National Committee for Clinical Laboratory Standards), method to determine MIC's of antimicrobial compounds is modified for high-throughput screening. All stocks of tested compounds are prepared in either water or in DMSO depending on solubility. At the highest concentration, DMSO content should not exceed 0.5%. Briefly, twenty 2-fold serial dilutions of test compounds from the highest concentration are made in a 384-well microtiter plate. […] Bacterial growth is determined by the increase of optical density at 600 nm using a microplate reader (Tecan SpectraFluor Plus).

E. aerogenes = test: as above; conditions: Klebsiella aerogenes
Description: as §1

S. epidermidis = test: as above; conditions: Staphylococcus epidermidis
Description: as §1

E. faecalis = test: as above; conditions: Enterococcus faecalis
Description: as §1

H. influenzae = test: as above; conditions: Haemophilus influenzae
Description: as §1

P. aeruginosa = test: as above; conditions: Pseudomonas aeruginosa
Description: as §1

K. pneumoniae = test: as above; conditions: Klebsiella pneumoniae
Description: as §1

M. catarrhalis = test: as above
Description: as §1

E. coli = test: as above
Description: The NCCLS (National Committee for Clinical Laboratory Standards), method to determine MIC's of antimicrobial compounds is modified for high-throughput screening. All stocks of tested compounds are prepared in either water or in DMSO depending on solubility. At the highest concentration, DMSO content should not exceed 0.5%. Briefly, twenty 2-fold serial dilutions of test compounds from the highest concentration are made in a 384-well microtiter plate. Each well is inoculated with testing bacteria in broth to a final concentration of approximately 1–1.5×10^6 cells/ml. Bacterial growth is determined by the increase of optical density at 600 nm using a microplate reader (Tecan SpectraFluor Plus). The MIC is defined as the lowest concentration at which bacterial growth (equivalent to visible growth) was inhibited after 16 to 18 hours of incubation at the appropriate temperature required for the bacteria growth.
E. coli/TEM—E. coli expressing TEM-1 beta-lactamase; MRSA—Methicillin Resistant S. Aureus; MSSA—Methicillin Sensitive S. Aureus

## CSCCC(NC=O)C(=O)NC(CC(C)C)C(=O)Oc1cc(Cl)ccc1Oc1ccc(Cl)cc1Cl (stereo not drawn) [NB2046, 2-(2-formylamino-4-methylsulfanyl-butyrylamino)-4-methyl-pentanoic acid 5-chloro-2-(2,4-dichloro-phenoxy)-phenyl ester]
[1]
  IC50 at 16 h: ~30 µM
E. cloacae; ATCC23355, E. cloacae ATCC 23355, Exp. #1, Table 3
  MIC: 0.5 µg/mL (≈ 0.89 µM)
E. cloacae; ATCC23355, E. cloacae ATCC 23355, Exp. #1, Table 4
  MIC: 16 µg/mL (≈ 28.5 µM)
E. cloacae; ATCC23355, E. cloacae ATCC 23355, Exp. #2, Table 3
  MIC: 0.5 µg/mL (≈ 0.89 µM)
E. cloacae; ATCC23355, E. cloacae ATCC 23355, Exp. #2, Table 4
  MIC: 1 µg/mL (≈ 1.78 µM)
E. aerogenes; ATCC13048, E. aerogenes ATCC 13048, Exp. #1, Table 3
  MIC: 1 µg/mL (≈ 1.78 µM)
E. aerogenes; ATCC13048, E. aerogenes ATCC 13048, Exp. #2, Table 3
  MIC: 1 µg/mL (≈ 1.78 µM)
E. aerogenes; ATCC29009, E. aerogenes ATCC 29009, Exp. #1, Table 3
  MIC: 0.25 µg/mL (≈ 0.445 µM)
E. aerogenes; ATCC29009, E. aerogenes ATCC 29009, Exp. #2, Table 3
  MIC: ≤ 0.125 µg/mL
E. aerogenes; ATCC29751, E. aerogenes ATCC 29751, Exp. #1, Table 3
  MIC: 2 µg/mL (≈ 3.56 µM)
E. aerogenes; ATCC29751, E. aerogenes ATCC 29751, Exp. #2, Table 3
  MIC: 1 µg/mL (≈ 1.78 µM)
E. aerogenes; ATCC35028, E. aerogenes ATCC 35028, Exp. #1, Table 3
  MIC: 4 µg/mL (≈ 7.12 µM)
E. aerogenes; ATCC35028, E. aerogenes ATCC 35028, Exp. #1, Table 4
  MIC: 32 µg/mL (≈ 56.9 µM)
E. aerogenes; ATCC35028, E. aerogenes ATCC 35028, Exp. #2, Table 3
  MIC: 2 µg/mL (≈ 3.56 µM)
E. aerogenes; ATCC35028, E. aerogenes ATCC 35028, Exp. #2, Table 4
  MIC: 16 µg/mL (≈ 28.5 µM)
S. epidermidis; ATCC27626, S. epidermidis ATCC 27626, Exp. #1, Table 3
  MIC: ≤ 0.125 µg/mL
S. epidermidis; ATCC27626, S. epidermidis ATCC 27626, Exp. #2, Table 3
  MIC: ≤ 0.125 µg/mL
S. epidermidis; ATCC700565, S. epidermidis ATCC 700565, Exp. #1, Table 3
  MIC: 2 µg/mL (≈ 3.56 µM)
S. epidermidis; ATCC700565, S. epidermidis ATCC 700565, Exp. #2, Table 3
  MIC: 2 µg/mL (≈ 3.56 µM)
S. epidermidis; ATCC700566, S. epidermidis ATCC 700566, Exp. #1, Table 3
  MIC: ≤ 0.125 µg/mL
S. epidermidis; ATCC700566, S. epidermidis ATCC 700566, Exp. #2, Table 3
  MIC: ≤ 0.125 µg/mL
S. epidermidis; ATCC700578, S. epidermidis ATCC 700578, Exp. #1, Table 3
  MIC: 0.5 µg/mL (≈ 0.89 µM)
S. epidermidis; ATCC700578, S. epidermidis ATCC 700578, Exp. #2, Table 3
  MIC: 0.25 µg/mL (≈ 0.445 µM)
S. epidermidis; ATCC700583, S. epidermidis ATCC 700583, Exp. #1, Table 3
  MIC: ≤ 0.125 µg/mL
S. epidermidis; ATCC700583, S. epidermidis ATCC 700583, Exp. #2, Table 3
  MIC: ≤ 0.125 µg/mL
E. faecalis; ATCC49757, E. faecalis ATCC 49757, Exp. #1, Table 4
  MIC: 64 µg/mL (≈ 114 µM)
E. faecalis; ATCC49757, E. faecalis ATCC 49757, Exp. #2, Table 4
  MIC: 32 µg/mL (≈ 56.9 µM)
E. faecalis; ATCC700802, E. faecalis ATCC 700802, Exp. #1, Table 4
  MIC: 32 µg/mL (≈ 56.9 µM)
E. faecalis; ATCC700802, E. faecalis ATCC 700802, Exp. #2, Table 4
  MIC: 32 µg/mL (≈ 56.9 µM)
H. influenzae; ATCC33533, H. influenzae ATCC 33533, Exp. #1, Table 4
  MIC: 64 µg/mL (≈ 114 µM)
H. influenzae; ATCC33533, H. influenzae ATCC 33533, Exp. #2, Table 4
  MIC: ≥ 64 µg/mL
P. aeruginosa; ATCC21726, P. aeruginosa ATCC 21726, Exp. #1, Table 4
  MIC: > 64 µg/mL
P. aeruginosa; ATCC21726, P. aeruginosa ATCC 21726, Exp. #2, Table 4
  MIC: ≥ 64 µg/mL
P. aeruginosa; ATCC29872, P. aeruginosa ATCC 29872, Exp. #1, Table 4
  MIC: > 64 µg/mL
P. aeruginosa; ATCC29872, P. aeruginosa ATCC 29872, Exp. #2, Table 4
  MIC: ≥ 64 µg/mL
K. pneumoniae; ATCC51503, K. pneumoniae ATCC 51503, Exp. #1, Table 3
  MIC: 8 µg/mL (≈ 14.2 µM)
K. pneumoniae; ATCC51503, K. pneumoniae ATCC 51503, Exp. #1, Table 4
  MIC: 4 µg/mL (≈ 7.12 µM)
K. pneumoniae; ATCC51503, K. pneumoniae ATCC 51503, Exp. #2, Table 3
  MIC: 8 µg/mL (≈ 14.2 µM)
K. pneumoniae; ATCC51503, K. pneumoniae ATCC 51503, Exp. #2, Table 4
  MIC: 8 µg/mL (≈ 14.2 µM)
K. pneumoniae; ATCC51504, K. pneumoniae ATCC 51504, Exp. #1, Table 3
  MIC: 1 µg/mL (≈ 1.78 µM)
K. pneumoniae; ATCC51504, K. pneumoniae ATCC 51504, Exp. #2, Table 3
  MIC: 2 µg/mL (≈ 3.56 µM)
K. pneumoniae; ATCC700721, K. pneumoniae ATCC 700721, Exp. #1, Table 3
  MIC: 2 µg/mL (≈ 3.56 µM)
K. pneumoniae; ATCC700721, K. pneumoniae ATCC 700721, Exp. #1, Table 4
  MIC: 4 µg/mL (≈ 7.12 µM)
K. pneumoniae; ATCC700721, K. pneumoniae ATCC 700721, Exp. #2, Table 3
  MIC: 2 µg/mL (≈ 3.56 µM)
K. pneumoniae; ATCC700721, K. pneumoniae ATCC 700721, Exp. #2, Table 4
  MIC: 8 µg/mL (≈ 14.2 µM)
M. catarrhalis; M. catarrhalis ATCC 43627, Exp. #2, Table 3
  MIC: ≦0.125 μg/ml
M. catarrhalis; M. catarrhalis ATCC 43628, Exp. #2, Table 3
  MIC: ≦0.125 μg/ml
M. catarrhalis; M. catarrhalis ATCC 49265, Exp. #2, Table 3
  MIC: ≦0.125 μg/ml
M. catarrhalis; M. catarrhalis ATCC 51584, Exp. #2, Table 3
  MIC: ≦0.125 μg/ml
M. catarrhalis; Moraxella catarrhalis, ATCC43627, M. catarrhalis ATCC 43627, Exp. #1, Table 3, read-out: MIC
  MIC: ≤ 0.125 µg/mL
M. catarrhalis; Moraxella catarrhalis, ATCC43628, M. catarrhalis ATCC 43628, Exp. #1, Table 3, read-out: MIC
  MIC: ≤ 0.125 µg/mL
M. catarrhalis; Moraxella catarrhalis, ATCC49265, M. catarrhalis ATCC 49265, Exp. #1, Table 3, read-out: MIC
  MIC: ≤ 0.125 µg/mL
M. catarrhalis; Moraxella catarrhalis, ATCC51584, M. catarrhalis ATCC 51584, Exp. #1, Table 3, read-out: MIC
  MIC: ≤ 0.125 µg/mL
E. coli; E. coli, Exp. #2, Table 4
  MIC: 16 µg/mL (≈ 28.5 µM)
E. coli; E. coli/Tem-1 (expressing TEM-1 beta-lactamase), Exp. #1, Table 4
  MIC: 16 µg/mL (≈ 28.5 µM)
E. coli; E. coli/Tem-1 (expressing TEM-1 beta-lactamase), Exp. #2, Table 4
  MIC: 16 µg/mL (≈ 28.5 µM)
E. coli; Escherichia coli, E. coli, Exp. #1, Table 4, read-out: MIC
  MIC: 16 µg/mL (≈ 28.5 µM)
